Like-named read-outs stand apart in the source and are kept apart here.
How the values were obtained:
Assay type in all cases: cell-based
HeLa MKYP cells [1] = assay: Human mitophagy assay (HeLa mKeima assay, FACS); details: read-out: Mitophagy induction EC50
Summary of the method: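 Mitophagy, read by FACS as the share of cells showing the lysosomal mtKeima emission shift, followed 6 h of 1 uM FCCP/oligomycin stimulation. Before that, HeLa MKYP cells spent 16 h with compound over a concentration range.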

HeLa MKYP cells [2] = assay: Cell death measured by DAPI staining, with 1 μM FCCP/oligomycin or no toxin (no FO)
Summary of the method: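 Cell death was read by DAPI staining after 6–6.5 h compound exposure in HeLa MKYP cells, either with 1 μM FCCP/oligomycin or without toxin. H2O2 served as the cell-death control.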

[3] = Mitotoxicity / Mitotox safety margin (therapeutic window)

SMILES	EC50 (HeLa MKYP cells [1]; Homo sapiens, HeLa) [nM]	Highest safe dose (cytotoxicity; no FO; safe means DAPI+ <20%) (HeLa MKYP cells [2]) [µM]	Max % death with 1 μM FO (HeLa MKYP cells [2]) [%]	Mito-Safety Index (highest safe dose/EC50) [3]	Highest safe dose (μM) (mitotox or cytotox) [3] [µM]	EC50 (HeLa MKYP cells [1]) [nM]
Fc1ccc2c(c1)CC[C@H](N1C[C@@H]3COC[C@H]3C1)[C@H]2Nc1ncnc2[nH]c(C3CC3)cc12 [EP-0040669]	350	25.0	29.9	71.36	25.0	
FC(F)(F)c1cc2c(NC3c4ccccc4OCC3N3C[C@@H]4COC[C@H]4C3)ncnc2[nH]1 (stereo partly shown) [EP-0040677]	320	25.0	11.1	77.08	25.0	
FC(F)(F)c1cc2c(NC3c4ccccc4OCC3N3C[C@H]4COC[C@@H]4C3)ncnc2[nH]1 (stereo partly shown) [EP-0040678]	860	25.0	9.2	28.90	25.0	
COC1CN([C@H]2CCc3ccccc3[C@@H]2Nc2ncnc3[nH]c(C(F)(F)F)cc23)C1 [EP-0040688]	310	8.3	82.1	26.96	8.3	
Fc1ccc2c(c1)CC[C@H](N1C[C@H]3COC[C@@H]3C1)[C@H]2Nc1ncnc2[nH]c(C(F)(F)F)cc12 [EP-0040695]	100	25.0	20.7	89.34	9.1	
COC1CN([C@H]2COc3ccccc3[C@@H]2Nc2ncnc3[nH]c(C(F)(F)F)cc23)C1 [EP-0040697]		8.3	57.6	15.51	8.3	540
COC1CN([C@H]2COc3ccccc3[C@@H]2Nc2ncnc3[nH]c(C4CC4)cc23)C1 [EP-0040702]		25.0	7.7	77.26	25.0	320
c1ccc2c(c1)CC[C@H](C1CCOCC1)[C@H]2Nc1ncnc2[nH]c(C3CC3)cc12 [EP-0040726]	20	25.0	20.5	100.89	2.1	
c1ccc2c(c1)OC[C@@H](C1CCOCC1)[C@@H]2Nc1ncnc2[nH]c(C3CC3)cc12 [EP-0040729]	60	25.0	17.1	52.06	3.2	
c1ccc2c(c1)CC[C@H](N1C[C@@H]3COC[C@H]3C1)[C@H]2Nc1ncnc2[nH]c(C3CC3)cc12 [EP-0040768]	50	25.0	33.1	57.75	3.0	
COC1CN([C@H]2COc3ccccc3[C@@H]2Nc2ncnc3[nH]c(C4CC4)cc23)C1 [EP-0040847]		25.0	5.2		25.0	> 25000
COC1CN([C@@H]2COc3ccccc3[C@H]2Nc2ncnc3[nH]c(C4CC4)cc23)C1 [EP-0040848]	160	25.0	10.6	152.94	25.0	
COC1CN([C@H]2COc3ccccc3[C@@H]2Nc2ncnc3[nH]c(C(F)(F)F)cc23)C1 [EP-0040849]		25.0	5.2	2.61	25.0	9590
C[C@@H]1CN([C@@H]2COc3ccccc3[C@H]2Nc2ncnc3[nH]c(C(F)(F)F)cc23)C[C@H](C)O1 [EP-0040943]	50	25.0	20.9	47.50	2.3	
C[C@@H]1CN([C@H]2COc3ccccc3[C@@H]2Nc2ncnc3[nH]c(C4CC4)cc23)C[C@H](C)O1 [EP-0040944]	1220	25.0	6.3	20.51	25.0	
C[C@@H]1CN([C@@H]2COc3ccccc3[C@H]2Nc2ncnc3[nH]c(C4CC4)cc23)C[C@H](C)O1 [EP-0040945]	40	25.0	18.4	27.95	1.2	
C[C@@H]1CN([C@H]2COc3cc(F)ccc3[C@@H]2Nc2ncnc3[nH]c(C(F)(F)F)cc23)C[C@H](C)O1 [EP-0040946]	> 25000		4.8		25.0	
C[C@@H]1CN([C@@H]2COc3cc(F)ccc3[C@H]2Nc2ncnc3[nH]c(C(F)(F)F)cc23)C[C@H](C)O1 [EP-0040947]	20	25.0	16.6	98.61	2.2	
C[C@@H]1CN([C@H]2COc3cc(F)ccc3[C@@H]2Nc2ncnc3[nH]c(C4CC4)cc23)C[C@H](C)O1 [EP-0040948]	> 25000	25.0	5.6		25.0	
C[C@@H]1CN([C@@H]2COc3cc(F)ccc3[C@H]2Nc2ncnc3[nH]c(C4CC4)cc23)C[C@H](C)O1 [EP-0040949]	10	25.0	21.1	114.83	1.2	
C[C@@H]1CN([C@@H]2COc3ccccc3[C@H]2Nc2ncnc3[nH]c(C(F)(F)F)cc23)CCO1 [EP-0040956]	190	25.0	24.7	52.10	9.7	
C[C@@H]1CN([C@@H]2COc3ccccc3[C@H]2Nc2ncnc3[nH]c(C4CC4)cc23)CCO1 [EP-0040958]	60	25.0	14.1	29.33	1.7	
C[C@H]1CN([C@@H]2COc3ccccc3[C@H]2Nc2ncnc3[nH]c(C(F)(F)F)cc23)CCO1 [EP-0040980]	380	19.4	14.7	50.83	19.4	
C[C@H]1CN([C@H]2COc3ccccc3[C@@H]2Nc2ncnc3[nH]c(C4CC4)cc23)CCO1 [EP-0040999]	140	25.0	12.1	105.78	15.1	
C[C@@H]1CN([C@H]2COc3cc(F)ccc3[C@@H]2Nc2ncnc3[nH]c(C4CC4)cc23)CCO1 [EP-0041122]	50	16.7	16.9	37.43	2.0	

From patent publication US20240018146A1, “COMPOSITIONS AND METHODS OF USING THE SAME FOR TREATMENT OF NEURODEGENERATIVE AND MITOCHONDRIAL DISEASE” (MITOKININ, INC., priority 2020, published 2024)
